# Experimental data: patent publication US4546084A, “Biologically pure culture of Actinomadura Sp” (Bristol-Myers Company, priority 1984, dated 1985)
# Assays:
# [1] = test system: Bacillus subtilis PCI 219; test: In vitro antimicrobial activity, serial two-fold agar dilution; type: cell-based; conditions: nutrient agar medium
# Experimental: (§1) The antibacterial activity of BBM-1644 was determined by the serial two-fold agar dilution method. Nutrient agar medium was used for gram-positive and gram-negative bacteria; nutrient agar medium containing 4% glycerol for acid-fast bacteria and Sabaouraud agar medium for fungi. The activity was expressed as minimum inhibitory concentration (MIC) in the agar medium and the results are shown in Table 6 along with those of neocarzinostatin.
# [2] = test system: Candida albicans IAM 4888; test: as above; type: cell-based; conditions: Sabouraud agar medium
# Experimental: as §1
# Escherichia coli NIHJ = test: as above; type: cell-based; conditions: nutrient agar medium
# Experimental: as §1
# [3] = test system: Klebsiella pneumoniae D-11; test: as above; type: cell-based; conditions: nutrient agar medium
# Experimental: as §1
# Micrococcus flavus D12 = test: as above; type: cell-based; conditions: nutrient agar medium
# Experimental: as §1
# [4] = test system: Micrococcus luteus PCI 1001; test: as above; type: cell-based; conditions: nutrient agar medium
# Experimental: as §1
# Mycobacterium phlei D88 = test: as above; type: cell-based; conditions: nutrient agar medium containing 4% glycerol
# Experimental: as §1
# [5] = test system: Mycobacterium smegmatis 607 D87; test: as above; type: cell-based; conditions: nutrient agar medium containing 4% glycerol
# Experimental: as §1
# Proteus vulgaris A9436 = test: as above; type: cell-based; conditions: nutrient agar medium
# Experimental: as §1
# [6] = test system: Pseudomonas aeruginosa A9930; test: as above; type: cell-based; conditions: nutrient agar medium
# Experimental: as §1
# [7] = test system: Staphylococcus aureus FDA 209P; test: as above; type: cell-based; conditions: nutrient agar medium
# Experimental: as §1
# [8] = test system: Staphylococcus aureus Smith; test: as above; type: cell-based; conditions: nutrient agar medium
# Experimental: as §1
# [9] = test system: Streptococcus pyogenes A20201; test: as above; type: cell-based; conditions: nutrient agar medium
# Experimental: as §1
# lysogenic bacterium = test: Induction of prophage in lysogenic bacterium (ILB); type: cell-based; conditions: significant activity: T/C of >3.0
# Experimental: The ability of BBM-1644 to induce prophage in lysogenic bacterium (ILB) was determined by the method of Lein et. al. (Nature 196: 783-784, 1962) using neocarzinostatin as a reference compound. The plaque count was made on agar plates containing test material (T) and control (C). A T/C ratio of the plaque counts of greater than 3 was considered significant and the ILB activity was expressed by the minimum inducing concentration of the test compound.
# [10] = test system: lymphocytic leukemia P388; test: Antitumor activity in mice against lymphocytic leukemia P388 (Table 8); type: in vivo, mice (BDF1 strain); conditions: ip, significant ≥125%
# Experimental: The antitumor activity of BBM-1644 was determined in mice (BDF1 strain) against lymphocytic leukemia P388. Each mouse was inoculated intraperitoneally with 3×10^5 cells of the tumor. Graded doses of the antibiotic were administered to mice intraperitoneally 24 hours after tumor implantation. The treatments were given once a day on days 1, 4 and 7 (q3d ×3 schedule) or 9 consecutive days (qd 1→9 schedule).
# P388 leukemia = test: Effect on P388 leukemia in mice, second test (Table 9); type: in vivo, CDF1 female mice; conditions: D.1,4&7; for Survivors Day 5: Tox <4/6 alive; for MST % T/C: ≥125 significant
# Text: Antitumor activity of BBM-1644 was also indicated by a second test against P388 leukemia in mice, the results of which are shown below in Table 9. Details of the methods used in this test have been described in Cancer Chemother. Rep. 3: 1-87 (Part 3), 1972.
# 10^6 ascites cells, ip (plus titration)
# Host: CDF1 .female. mice.
# Tox: <4/6 mice alive on Day 5.
# MST = median survival time.
# Effect: % T/C = (MST treated/MST control) × 100.
# Criteria: % T/C ≥ 125 considered significant antitumor
substance,measurement,setting,value
Neocarzinostatin,MIC,[1],3.1 µg/mL
same,MIC,[2],> 100 µg/mL
same,MIC,Escherichia coli NIHJ,> 100 µg/mL
same,MIC,[3],> 100 µg/mL
same,MIC,Micrococcus flavus D12,1.6 µg/mL
same,MIC,[4],1.6 µg/mL
same,MIC,Mycobacterium phlei D88,12.5 µg/mL
same,MIC,[5],50 µg/mL
same,MIC,Proteus vulgaris A9436,> 100 µg/mL
same,MIC,[6],> 100 µg/mL
same,MIC,[7],1.6 µg/mL
same,MIC,[8],0.8 µg/mL
same,MIC,[9],3.1 µg/mL
same,ILB activity (T/C),lysogenic bacterium; 0.1 mcg/ml,0.7
same,ILB activity (T/C),lysogenic bacterium; 1 mcg/ml,10.8
same,ILB activity (T/C),lysogenic bacterium; 10 mcg/ml,20.4
same,ILB activity (T/C),lysogenic bacterium; 100 mcg/ml,28.6
same,T/C (%) in MST,"[10]; 0.01 mg/kg/day, gd 1→9",113%
same,T/C (%) in MST,"[10]; 0.03 mg/kg/day, gd 1→9",125%
same,T/C (%) in MST,"[10]; 0.03 mg/kg/day, q3d × 3",113%
same,T/C (%) in MST,"[10]; 0.1 mg/kg/day, gd 1→9",138%
same,T/C (%) in MST,"[10]; 0.1 mg/kg/day, q3d × 3",125%
same,T/C (%) in MST,"[10]; 0.3 mg/kg/day, gd 1→9",163%
same,T/C (%) in MST,"[10]; 0.3 mg/kg/day, q3d × 3",150%
same,T/C (%) in MST,"[10]; 1 mg/kg/day, q3d × 3",163%
same,AWC d.6,P388 leukemia; 0.05 mg/kg/inj IP,-1.7 gm
same,MST,P388 leukemia; 0.05 mg/kg/inj IP,12.0 days
same,Survivors Day 5,P388 leukemia; 0.05 mg/kg/inj IP,6/6
same,MST % T/C,P388 leukemia; 0.05 mg/kg/inj IP,133%
same,AWC d.6,P388 leukemia; 0.1 mg/kg/inj IP,-1.2 gm
same,MST,P388 leukemia; 0.1 mg/kg/inj IP,13.5 days
same,Survivors Day 5,P388 leukemia; 0.1 mg/kg/inj IP,6/6
same,MST % T/C,P388 leukemia; 0.1 mg/kg/inj IP,150%
same,AWC d.6,P388 leukemia; 0.2 mg/kg/inj IP,-2.5 gm
same,MST,P388 leukemia; 0.2 mg/kg/inj IP,15.0 days
same,Survivors Day 5,P388 leukemia; 0.2 mg/kg/inj IP,6/6
same,MST % T/C,P388 leukemia; 0.2 mg/kg/inj IP,167%
same,AWC d.6,P388 leukemia; 0.4 mg/kg/inj IP,-3.2 gm
same,MST,P388 leukemia; 0.4 mg/kg/inj IP,15.5 days
same,Survivors Day 5,P388 leukemia; 0.4 mg/kg/inj IP,6/6
same,MST % T/C,P388 leukemia; 0.4 mg/kg/inj IP,172%
same,AWC d.6,P388 leukemia; 0.8 mg/kg/inj IP,-4.3 gm
same,MST,P388 leukemia; 0.8 mg/kg/inj IP,10.5 days
same,Survivors Day 5,P388 leukemia; 0.8 mg/kg/inj IP,6/6
same,MST % T/C,P388 leukemia; 0.8 mg/kg/inj IP,117%
same,AWC d.6,P388 leukemia; 1.6 mg/kg/inj IP,-4.8 gm
same,MST,P388 leukemia; 1.6 mg/kg/inj IP,8.0 days
same,Survivors Day 5,P388 leukemia; 1.6 mg/kg/inj IP,6/6
same,MST % T/C,P388 leukemia; 1.6 mg/kg/inj IP,89%
